Data published in article PMC8739347 (Tropical Medicine and Health, 2022).

Experiments:
Assay in all cases: Antiviral activity assay in Vero E6 cells, qRT-PCR of supernatant
Type in all cases: cell-based
[1] = tested on: SARS-CoV-2 Alpha variant (hCoV-19/Japan/QK002/2020); conditions: Severe acute respiratory syndrome coronavirus 2, Vero C1008, compound concentration (for 5-ALA/SFC the 5-ALA concentration, ratio 4:1)
[2] = tested on: SARS-CoV-2 Beta variant (hCoV-19/Japan/TY8-612/2020); conditions: Severe acute respiratory syndrome coronavirus 2, Vero C1008, compound concentration (for 5-ALA/SFC the 5-ALA concentration, ratio 4:1)
[3] = tested on: SARS-CoV-2 Gamma variant (hCoV-19/Japan/TY7-501/2020); conditions: for IC50: Severe acute respiratory syndrome coronavirus 2, Vero C1008, Gamma, compound concentration (for 5-ALA/SFC the 5-ALA concentration, ratio 4:1)
[4] = tested on: SARS-CoV-2 Delta variant (hCoV-19/Japan/TY11-330-P1//2021); conditions: for IC50: Severe acute respiratory syndrome coronavirus 2, Vero C1008, Delta, compound concentration (for 5-ALA/SFC the 5-ALA concentration, ratio 4:1)

Row | Structure (SMILES) | IC50 [1] [µM] | IC50 [2] [µM] | viral inhibition [3] | IC50 [3] [µM] | viral inhibition [4] | IC50 [4] [µM]
1 | NCC(=O)CCC(=O)O [5-ALA, 5-aminolevulinic acid] | 104 | 1590 | no viral inhibition | > 2000 | little viral inhibition | > 2000
2 | CCC(CC)COC(=O)[C@H](C)N[P@](=O)(OC[C@H]1O[C@@](C#N)(c2ccc3c(N)ncnn23)[C@H](O)[C@@H]1O)Oc1ccccc1 [remdesivir, Remdesivir] | 0.1 to 1 | 0.1 to 1 |  | 0.1 to 1 |  | 0.1 to 1
